# Calls of active or inactive are those of the source. Rule as the data show it, for most assays here: actives have a measured EC50 and inactives only a lower limit.
# Key:
# Protein RecA = molecular target: T1, Protein RecA (Mycobacterium tuberculosis, UniProt P9WHJ3); test: Fluorescence Cell-Free Homogeneous Dose Retest to Identify Inhibitors of RecA-Intein Splicing Activity. [Related pubchem assays (depositor defined):AID2097, AID2223, AID489010, AID492950]; format: functional
# T1 sequence (P9WHJ3 whole entry): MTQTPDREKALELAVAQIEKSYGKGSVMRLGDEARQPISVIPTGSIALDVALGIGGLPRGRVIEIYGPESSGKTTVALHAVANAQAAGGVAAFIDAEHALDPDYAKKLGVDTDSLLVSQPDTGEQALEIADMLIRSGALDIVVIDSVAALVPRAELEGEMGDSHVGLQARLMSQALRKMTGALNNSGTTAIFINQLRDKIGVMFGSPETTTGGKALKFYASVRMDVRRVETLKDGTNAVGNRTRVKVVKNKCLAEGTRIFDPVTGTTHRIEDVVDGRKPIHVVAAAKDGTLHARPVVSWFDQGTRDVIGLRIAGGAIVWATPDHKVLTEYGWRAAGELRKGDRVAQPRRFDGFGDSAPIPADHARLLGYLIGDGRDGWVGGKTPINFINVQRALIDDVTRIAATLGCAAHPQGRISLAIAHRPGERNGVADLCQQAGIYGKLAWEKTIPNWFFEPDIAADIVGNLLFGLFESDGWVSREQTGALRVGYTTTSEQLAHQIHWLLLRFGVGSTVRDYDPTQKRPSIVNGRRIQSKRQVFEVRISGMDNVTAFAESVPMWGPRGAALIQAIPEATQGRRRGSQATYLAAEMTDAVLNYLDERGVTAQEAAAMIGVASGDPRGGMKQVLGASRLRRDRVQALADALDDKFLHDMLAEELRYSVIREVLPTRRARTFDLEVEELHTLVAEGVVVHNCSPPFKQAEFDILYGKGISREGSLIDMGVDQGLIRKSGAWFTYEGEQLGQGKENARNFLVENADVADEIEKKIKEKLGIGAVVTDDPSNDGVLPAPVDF
# [1] = molecular target: T2, Replicative DNA helicase DnaB (Mycobacterium tuberculosis, UniProt P9WMR3); test: DnaB intein splicing inhibitors, dose response, biochemical, cell-free fluorescence (AID 449749); format: functional
# T2 sequence (P9WMR3 whole entry): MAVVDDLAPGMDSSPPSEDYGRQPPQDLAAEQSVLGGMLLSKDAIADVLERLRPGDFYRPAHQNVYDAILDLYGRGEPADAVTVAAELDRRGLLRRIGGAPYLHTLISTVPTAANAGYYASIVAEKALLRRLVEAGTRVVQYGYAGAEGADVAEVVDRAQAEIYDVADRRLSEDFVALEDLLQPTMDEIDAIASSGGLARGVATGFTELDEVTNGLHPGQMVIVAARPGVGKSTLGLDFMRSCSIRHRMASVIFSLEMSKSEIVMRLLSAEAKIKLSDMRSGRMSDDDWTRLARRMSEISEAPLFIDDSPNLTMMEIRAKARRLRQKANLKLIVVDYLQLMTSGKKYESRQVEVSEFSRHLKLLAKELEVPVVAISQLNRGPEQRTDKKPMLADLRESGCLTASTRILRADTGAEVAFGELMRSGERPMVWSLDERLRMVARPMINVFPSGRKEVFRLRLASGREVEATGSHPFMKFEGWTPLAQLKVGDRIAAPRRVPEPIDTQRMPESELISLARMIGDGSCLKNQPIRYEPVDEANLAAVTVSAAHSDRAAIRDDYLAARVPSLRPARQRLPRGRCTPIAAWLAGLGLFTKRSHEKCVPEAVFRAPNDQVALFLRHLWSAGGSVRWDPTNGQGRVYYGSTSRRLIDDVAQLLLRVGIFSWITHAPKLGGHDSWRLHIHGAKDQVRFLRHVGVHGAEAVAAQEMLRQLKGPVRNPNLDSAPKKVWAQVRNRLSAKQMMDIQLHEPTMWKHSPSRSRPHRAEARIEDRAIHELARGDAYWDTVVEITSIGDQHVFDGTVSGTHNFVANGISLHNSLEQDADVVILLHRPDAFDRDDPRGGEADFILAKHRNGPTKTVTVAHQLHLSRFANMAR
# [2] = inhibitors of intracellular T. cruzi replication, confirmation, NIH3T3 host cells, beta-gal luminescence (AID 2044); format: functional, cell-based;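 also: intracellular parasites grown in NIH/3T3 mouse fibroblasts as host cells; luminescent beta-galactosidase reporter signal from transgenic T. cruzi replicating inside host cells; inhibitors lower the luminescence signal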
# cells = format: functional
# [3] = cytotoxicity toward NIH3T3 fibroblasts, dose response, counter-screen, cell-based, ATP luminescence, mouse fibroblasts (AID 2010); format: functional;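 also: cells exposed to compound for about 90 hours before reading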
# [4] = NIH-3T3 fibroblast cytotoxicity, dose response, cytotoxicity control, cell-based, fluorescence, Alamar Blue, secondary assay (AID 2327); format: functional;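 also: NIH-3T3 mouse fibroblasts cultured with fluconazole at 8 µg/mL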
# [5] = Luminescence Cell-Based Dose Confirmation HTS to Identify Inhibitors of Platelet Dense Granule Release. [Related pubchem assays: 1663 (Primary HTS), 1678 (Summary of Project)]; format: functional
# [6] = molecular target: Luciferin 4-monooxygenase (Photinus pyralis, UniProt P08659); test: firefly luciferase enzyme inhibitors, dose response, biochemical, luminescence (AID 1891)
# Large T antigen = Large T antigen (Simian virus 40, UniProt P03070); format: functional, Betapolyomavirus macacae;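 also: Confirmatory-stage PubChem screen for compounds that inhibit SV40 T antigen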
# [7] = molecular target: T3, Microphthalmia-associated transcription factor (Homo sapiens, UniProt O75030); test: TRPM1 promoter luciferase signal decrease, dose response, MITF inhibitor project, cell-based, SK-MEL-5, cherry-picked, set 3 (AID 493073); format: functional
# T3 sequence (O75030 whole entry): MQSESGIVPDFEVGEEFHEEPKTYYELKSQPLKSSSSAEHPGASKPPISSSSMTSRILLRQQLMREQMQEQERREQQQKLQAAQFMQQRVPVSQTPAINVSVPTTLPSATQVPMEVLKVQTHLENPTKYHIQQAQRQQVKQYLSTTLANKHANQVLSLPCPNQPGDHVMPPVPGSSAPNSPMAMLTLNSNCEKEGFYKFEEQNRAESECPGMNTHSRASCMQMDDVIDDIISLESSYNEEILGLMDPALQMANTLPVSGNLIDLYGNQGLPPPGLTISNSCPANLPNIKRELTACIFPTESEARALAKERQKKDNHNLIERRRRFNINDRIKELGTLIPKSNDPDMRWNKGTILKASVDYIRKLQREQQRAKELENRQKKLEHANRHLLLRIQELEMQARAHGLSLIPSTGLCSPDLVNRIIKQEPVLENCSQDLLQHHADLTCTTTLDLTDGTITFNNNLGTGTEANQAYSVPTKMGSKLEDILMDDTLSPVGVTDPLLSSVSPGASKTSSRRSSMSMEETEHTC
# [8] = C. albicans growth with fluconazole, confirmation, fluorescence, retest (AID 2467); format: functional, cell-based
# [9] = inhibitors of HIV Env-driven cell fusion, dose response, cherry-pick (AID 652057); format: functional, cell-based
# [10] = Luminescence Cell-Based Dose Retest to Confirm Inhibitors of Cancer Stem Cells. [Related pubchem assays (depositor defined):AID2717, AID2721]; format: functional, Homo sapiens; settings: Homo sapiens
# [11] = inhibitors of SNCA 5'UTR-driven reporter translation, confirmation, H4 neuroglioma cells, luminescence (AID 1988); format: functional, cell-based
# [12] = inhibitors of firefly luciferase expression or activity, dose response, H4 neuroglioma cells, luminescence (AID 1990); format: functional, cell-based
# [13] = Luminescence Cell-Based Dose Response HTS to Identify Inhibitors of 5'UTR Stem-Loop Driven Prion Protein mRNA Translation in H4 Neuroglioblastoma Cells. [Related pubchem assays: 1827 (Project Summary), 1813 (Primary HTS)]; format: functional
# [14] = molecular target: T4, Rac GTPase-activating protein 1 (Homo sapiens, UniProt Q9H0H5); test: MgcRacGAP GTPase-activating activity inhibitors, confirmation, biochemical, ADP Hunter fluorescence, primary and confirmatory (AID 624330); format: functional
# T4 sequence (Q9H0H5 whole entry): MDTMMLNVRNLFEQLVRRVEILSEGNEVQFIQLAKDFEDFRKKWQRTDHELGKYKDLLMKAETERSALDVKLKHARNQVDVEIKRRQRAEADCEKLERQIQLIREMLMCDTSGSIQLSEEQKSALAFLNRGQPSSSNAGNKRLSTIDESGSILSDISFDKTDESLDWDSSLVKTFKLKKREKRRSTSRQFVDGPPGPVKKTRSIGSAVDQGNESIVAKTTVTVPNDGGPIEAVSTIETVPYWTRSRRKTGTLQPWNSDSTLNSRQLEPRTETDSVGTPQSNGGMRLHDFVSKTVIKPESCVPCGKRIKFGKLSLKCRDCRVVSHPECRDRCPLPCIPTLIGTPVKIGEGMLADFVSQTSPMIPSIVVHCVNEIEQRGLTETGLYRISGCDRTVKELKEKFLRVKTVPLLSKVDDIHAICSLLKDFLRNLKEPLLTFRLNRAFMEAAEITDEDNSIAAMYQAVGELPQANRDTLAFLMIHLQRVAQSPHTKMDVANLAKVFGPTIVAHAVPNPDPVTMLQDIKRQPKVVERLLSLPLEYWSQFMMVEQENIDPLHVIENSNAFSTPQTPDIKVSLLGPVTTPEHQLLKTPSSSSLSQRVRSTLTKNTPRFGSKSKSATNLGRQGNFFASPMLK
# Chain of Large T antigen (P03070 whole entry): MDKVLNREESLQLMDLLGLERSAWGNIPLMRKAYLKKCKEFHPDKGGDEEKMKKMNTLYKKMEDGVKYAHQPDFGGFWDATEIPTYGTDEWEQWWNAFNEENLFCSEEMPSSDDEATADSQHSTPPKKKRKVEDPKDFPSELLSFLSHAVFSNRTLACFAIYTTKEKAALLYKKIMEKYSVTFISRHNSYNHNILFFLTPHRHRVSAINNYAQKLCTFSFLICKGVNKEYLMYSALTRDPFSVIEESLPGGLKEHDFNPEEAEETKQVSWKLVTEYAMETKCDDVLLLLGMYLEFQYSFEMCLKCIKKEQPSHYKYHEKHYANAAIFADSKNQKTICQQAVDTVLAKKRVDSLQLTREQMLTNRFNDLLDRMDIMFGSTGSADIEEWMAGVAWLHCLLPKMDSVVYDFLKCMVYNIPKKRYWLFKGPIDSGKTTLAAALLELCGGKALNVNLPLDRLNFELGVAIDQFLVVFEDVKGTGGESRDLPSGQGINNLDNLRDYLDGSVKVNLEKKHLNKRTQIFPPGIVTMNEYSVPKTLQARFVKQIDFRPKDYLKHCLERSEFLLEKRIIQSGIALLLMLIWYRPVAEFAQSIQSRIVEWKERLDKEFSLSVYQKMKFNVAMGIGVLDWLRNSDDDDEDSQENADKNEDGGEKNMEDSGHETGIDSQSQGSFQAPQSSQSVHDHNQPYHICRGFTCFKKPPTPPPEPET
# Chain of Luciferin 4-monooxygenase (P08659 whole entry): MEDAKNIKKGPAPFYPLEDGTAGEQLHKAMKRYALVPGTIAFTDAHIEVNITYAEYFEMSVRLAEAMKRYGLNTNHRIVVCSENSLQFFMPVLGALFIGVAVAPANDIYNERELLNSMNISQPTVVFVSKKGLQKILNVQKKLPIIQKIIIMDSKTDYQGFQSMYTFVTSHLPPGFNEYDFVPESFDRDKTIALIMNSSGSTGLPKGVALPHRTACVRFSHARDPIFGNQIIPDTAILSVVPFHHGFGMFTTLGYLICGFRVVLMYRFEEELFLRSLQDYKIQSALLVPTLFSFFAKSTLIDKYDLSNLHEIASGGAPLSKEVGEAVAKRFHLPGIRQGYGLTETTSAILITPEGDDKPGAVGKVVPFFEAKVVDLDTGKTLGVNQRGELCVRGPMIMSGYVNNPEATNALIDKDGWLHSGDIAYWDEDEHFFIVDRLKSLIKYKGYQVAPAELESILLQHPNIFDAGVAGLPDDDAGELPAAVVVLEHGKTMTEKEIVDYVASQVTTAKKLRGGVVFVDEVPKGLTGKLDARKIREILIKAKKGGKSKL
smiles,measurement,setting,value
Cc1n[nH]c2c1C(c1c(C)nn(C)c1C)C(C#N)=C(N)O2 (stereo not drawn),EC50,Protein RecA,4.86 µM (active)
same,AC50,[1],4.2 µM (active)
O=C(O)/C=C\C(=O)Nc1ccc(Oc2ccc(Br)cc2)cc1,EC50,Protein RecA,11 µM (active)
same,AC50,[1],14.6 µM (active)
O=[N+]([O-])c1ccc(CN2CCN(c3ccc(Cl)cc3)CC2)o1,EC50,[2],0.758 µM (active)
same,IC50,cells,< 0.1 µM (active)
same,EC50,[3],> 60 µM (not active)
CC1CCCCN1S(=O)(=O)c1ccc(NC(=O)c2cccc(-n3cnnn3)c2)cc1 (stereo not drawn),EC50,[4],> 150 µM (inactive)
COC(=O)c1ccc(NC(=O)C(=O)c2cccn2C)cc1,EC50,[5],2.39 µM (active)
same,EC50,[6],1.74 µM (active)
COc1cnn(C2CCCCC2)c(=O)c1O,IC50,cells,33.5 µM (active)
COc1cc(Cn2nnc3ccccc32)ccc1O,IC50,Large T antigen,7.55 µM (active)
COCc1n[nH]c2c1C(c1ccccc1F)C(C#N)=C(N)O2 (stereo not drawn),EC50,Protein RecA,6.49 µM (active)
same,AC50,[1],36.4 µM (active)
CCn1c(SCC(=O)N(C)c2c(N)n(Cc3ccccc3)c(=O)[nH]c2=O)nc2ccccc21,EC50,[5],> 112 µM (not active)
same,EC50,[6],> 112 µM (not active)
CC(C)(C)NC(=O)CCN(/N=C/c1ccc([N+](=O)[O-])o1)C1=NS(=O)(=O)c2ccccc21,AC50,[7],7.18 µM (active)
Cc1ccc(S(=O)(=O)CC(C)N2CCOCC2)c(S(=O)(=O)CC(C)N2CCOCC2)c1 (stereo not drawn),EC50,[8],6.26 µM (active)
same,EC50,[4],> 160 µM (inactive)
COc1ccccc1NC(=O)c1cc2n(n1)C(C(F)(F)F)CC(c1ccc3c(c1)OCO3)N2 (stereo not drawn),EC50,[5],> 112 µM (not active)
same,EC50,[6],> 112 µM (not active)
C=CCn1c(S)nnc1-c1cc(Cl)ccc1OC,EC50,[5],> 112 µM (not active)
CCOC(=O)c1cc2cc(OC)ccc2nc1C,EC50,[5],> 112 µM (not active)
same,EC50,[6],> 112 µM (not active)
CCc1n[nH]c(SCC(=O)Nc2ccc(N(C)C)cc2)n1,IC50,Large T antigen,15.5 µM (active)
Cc1ccc(S(=O)(=O)Nc2ccc3c(c2)CC(=O)N([C@@H](C)CO)C[C@H](C)[C@@H](CN(C)Cc2ccc(-c4ccccc4)cc2)O3)cc1,AC50,[9],20.2 µM (active)
O=C(Nc1ccc2c(c1)OCO2)Nc1ccccc1F,EC50,[5],3.42 µM (active)
same,EC50,[6],1.77 µM (active)
COc1cc2c(cc1OC)-c1cc(Nc3cccc(C)c3)nc(=O)n1CC2,EC50,[5],4.03 µM (active)
same,EC50,[6],> 112 µM (not active)
CCOC(=O)C1CCN(C(c2ccccn2)c2c(C)[nH]c3ccccc23)CC1 (stereo not drawn),EC50,[5],16.5 µM (active)
same,EC50,[6],> 112 µM (not active)
COc1ccc(NC(=O)c2cnn(-c3ccccc3)c2C)cc1,EC50,[5],6.03 µM (active)
same,EC50,[6],16.6 µM (active)
O=C1NC(=O)C(=Cc2ccc(-c3ccc(Cl)cc3)o2)C(=O)N1,IC50,cells,> 50 µM (active)
same,AC50,[7],9.2 µM (active)
O=c1cc(C23CC4CC(CC(C4)C2)C3)[nH][nH]1,EC50,Protein RecA,2.52 µM (active)
same,AC50,[1],2.85 µM (active)
O=C1NC(c2ccc(-c3ccccc3[N+](=O)[O-])o2)C(C(=O)c2ccc(Cl)cc2)C(O)(C(F)(F)F)N1 (stereo not drawn),AC50,[1],4.27 µM (active)
same,AC50,[10],9.56 µM (active)
CSc1nc(-c2ccco2)nn1C(=O)c1cccs1,EC50,Protein RecA,24.7 µM (active)
same,AC50,[1],28.3 µM (active)
CCCCOC(=O)c1ccc(OC(=O)N2CCOCC2)cc1,EC50,[5],> 112 µM (not active)
same,EC50,[6],> 112 µM (not active)
O=C(Oc1ccc(/C=N/O)cc1)c1ccccc1Cl,IC50,cells,22.6 µM (active)
CC(=O)Oc1c(C(=O)c2nnc(C)o2)c(=O)n(Cc2ccccc2)c2ccccc12,AC50,[7],6.98 µM (active)
COc1ccc(C(=O)NC(=O)Nc2cc(C)ccn2)cc1,EC50,[11],0.367 µM (active)
same,EC50,[12],1.67 µM (active)
same,EC50,[13],0.533 µM (active)
same,AC50,[7],4.96 µM (active)
CCN1CCN(Cc2nc3c(c(=O)[nH]c(=O)n3C)n2Cc2ccccc2Cl)CC1,EC50,[5],18.6 µM (active)
same,EC50,[6],> 112 µM (not active)
CCn1c(C)nc2cc(C(=O)N/N=C/c3ccc(OC)c(O)c3)ccc21,IC50,[14],80 µM (active)
same,IC50,Large T antigen,4.76 µM (active)
O=C1/C(=C\c2ccc(O)c(O)c2)N=C2CCCCCN12,IC50,[14],17.4 µM (active)
same,IC50,Large T antigen,6.68 µM (active)
Cc1ccc(OC(S)=Nc2ccc(O)cc2)cc1,IC50,[14],31.6 µM (active)
same,IC50,Large T antigen,13 µM (active)

# Source: ChEMBL document CHEMBL1201862, “PubChem BioAssay data set” (2004)
